These results are taken from ChEMBL document CHEMBL1134282 (J Med Chem, 2001).

Bounds are passed on as bounds.

The target of assay [1] is Cholinesterase (Homo sapiens, UniProt P06276). Description: In vitro inhibition of human plasma butyrylcholinesterase. In kind it is cell-free.
For assay [2], the target named is Acetylcholinesterase (Homo sapiens, UniProt P22303). Description: In vitro inhibition of human erythrocyte acetylcholinesterase.
Acetylcholinesterase, sequence (P22303 whole entry): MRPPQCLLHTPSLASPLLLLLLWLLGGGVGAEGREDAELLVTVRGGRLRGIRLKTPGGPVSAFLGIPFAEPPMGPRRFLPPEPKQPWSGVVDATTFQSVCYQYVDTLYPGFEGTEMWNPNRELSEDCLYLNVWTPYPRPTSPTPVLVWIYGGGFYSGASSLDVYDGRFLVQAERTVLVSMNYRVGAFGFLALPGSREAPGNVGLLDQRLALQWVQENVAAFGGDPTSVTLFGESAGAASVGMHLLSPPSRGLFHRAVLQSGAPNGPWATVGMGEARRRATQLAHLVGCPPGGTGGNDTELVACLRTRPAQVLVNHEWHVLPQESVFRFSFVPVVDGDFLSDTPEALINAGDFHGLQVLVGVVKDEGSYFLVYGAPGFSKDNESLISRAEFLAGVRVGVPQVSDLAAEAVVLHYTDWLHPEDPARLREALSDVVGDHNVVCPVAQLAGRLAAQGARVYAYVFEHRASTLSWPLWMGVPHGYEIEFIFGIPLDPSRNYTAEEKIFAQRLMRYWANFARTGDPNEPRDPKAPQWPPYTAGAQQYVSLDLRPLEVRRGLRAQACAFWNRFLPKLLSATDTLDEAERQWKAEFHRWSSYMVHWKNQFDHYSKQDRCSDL

Cholinesterase, sequence (P06276 whole entry): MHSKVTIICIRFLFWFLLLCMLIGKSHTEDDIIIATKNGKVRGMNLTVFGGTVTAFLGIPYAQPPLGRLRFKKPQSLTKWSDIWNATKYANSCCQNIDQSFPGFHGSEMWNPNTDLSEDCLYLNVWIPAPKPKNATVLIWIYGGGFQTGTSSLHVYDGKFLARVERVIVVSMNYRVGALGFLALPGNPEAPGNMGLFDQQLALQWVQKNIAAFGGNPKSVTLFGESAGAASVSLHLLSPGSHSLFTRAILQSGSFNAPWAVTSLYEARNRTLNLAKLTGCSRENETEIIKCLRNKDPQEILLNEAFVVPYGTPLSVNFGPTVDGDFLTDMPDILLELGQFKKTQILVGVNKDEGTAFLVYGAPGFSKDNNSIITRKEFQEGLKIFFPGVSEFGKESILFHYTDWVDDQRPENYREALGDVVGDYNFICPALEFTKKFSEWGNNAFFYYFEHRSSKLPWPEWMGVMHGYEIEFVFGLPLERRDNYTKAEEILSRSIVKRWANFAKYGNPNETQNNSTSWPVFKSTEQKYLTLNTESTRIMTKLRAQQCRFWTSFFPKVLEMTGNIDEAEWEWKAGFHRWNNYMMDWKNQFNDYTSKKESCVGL

The term IC50 denotes the concentration that gives 50% inhibition. A high value points to weaker potency in that assay. As to `CC(C)c1ccccc1NC(=O)Oc1ccc2c(c1)[C@]1(C)CCN(C)[C@@H]1N2C`, the IC50 was determined as 650 nM in assay [1] and 15 nM in assay [2].
As for `Cc1ccc(NC(=O)Oc2ccc3c(c2)[C@]2(C)CCN(C)[C@@H]2N3C)cc1C`, the IC50 came to 66 nM in assay [1] and 31 nM in assay [2].
The corresponding values for `Cc1cc(C)cc(NC(=O)Oc2ccc3c(c2)[C@]2(C)CCN(C)[C@@H]2N3C)c1` are 798 nM and 78 nM.
As to `Cc1cccc(NC(=O)Oc2ccc3c(c2)[C@]2(C)CCN(C)[C@@H]2N3C)c1`, the IC50 in assay [1] was 165 nM; in assay [2] it was 28 nM.
The like results for `CN(C(=O)Oc1ccc2c(c1)[C@]1(C)CCN(C)[C@@H]1N2C)c1ccccc1` were, in that order, above 10000 nM and 690 nM.
The corresponding values for `CN(C)Cc1cc2c(cc1OC(=O)Nc1ccccc1)[C@]1(C)CCN(C)[C@@H]1N2C` are 3890 nM and 2500 nM.
As to `Cc1cc2c(cc1OC(=O)Nc1ccccc1)[C@]1(C)CCN(C)[C@@H]1N2C`, the figures for the IC50 in assay [1] and in assay [2] were 5020 nM and 260 nM, respectively.
`CNC(=O)Oc1cc2c(cc1C)N(C)[C@H]1N(C)CC[C@@]21C`: the IC50 in assay [1] was 8530 nM; in assay [2], above 10000 nM.
In assay [1], `CCc1cccc(CC)c1NC(=O)Oc1ccc2c(c1)[C@]1(C)CCN(C)[C@@H]1N2C` returned an IC50 of 1100 nM. In other words, the single-digit micromolar range.
With `Cc1ccc(NC(=O)Oc2ccc3c(c2)[C@]2(C)CCN(C)[C@@H]2N3C)c(C)c1`, half-maximal inhibition in assay [2] (IC50) required 14 nM.
`Cc1cccc(NC(=O)Oc2ccc3c(c2)[C@]2(C)CCN(C)[C@@H]2N3C)c1C`: the results for the IC50 in assay [1] and in assay [2] were 170 nM and 23 nM, respectively.
Take `Cc1ccc(C)c(NC(=O)Oc2ccc3c(c2)[C@]2(C)CCN(C)[C@@H]2N3C)c1`: the IC50 was determined as 490 nM in assay [1] and 26 nM in assay [2].
The corresponding values for `Cc1cccc(C)c1NC(=O)Oc1ccc2c(c1)[C@]1(C)CCN(C)[C@@H]1N2C` are 290 nM and 785 nM.
With `CCc1ccccc1NC(=O)Oc1ccc2c(c1)[C@]1(C)CCN(C)[C@@H]1N2C` [ETHYLPHENSERINE], half-maximal inhibition in assay [2] (IC50) was put at 10 nM. That is a double-digit nanomolar value.
In the case of `CN1CC[C@@]2(C)c3cc(OC(=O)Nc4ccccc4)ccc3N(C)[C@@H]12` [PHENSERINE], in assay [1], it took 1560 nM to reach half-maximal inhibition (IC50).
